Data published in patent US20250154525A1, “PLANT VIRUS MOVEMENT PROTEINS AND METHODS OF USING SAME” (Molecular Transfer, Inc., priority 2016, published 2025).

What was measured:
Assay in all cases: GFP plasmid transfection with DOTMA/DOPE plus plant virus movement protein derived peptides (Example 2)
Type in all cases: cell-based
HeLa Cells = settings: 1-6 μL of transfection reagents
Experimental: (§1) Cells were plated to so that on the day of transfection the cells were 70% confluent in 96 well tissue culture plates. A DOMTA/DOPE Lipid solution (1:1 molar ratio) at 2 mg/mL in water were mixed with an equal volume of plant virus movement protein derived peptides that had the nucleic acid binding moiety RRRRRRRRRRRR (SEQ ID NO:109) or KKKKKKKKKKKKKKKK (SEQ ID NO: 102) covalently linked to the N-terminus, or C-terminus of each peptide during peptide synthesis. Peptides were at 2 mg/mL in water. The DOTMA/DOPE and the plant virus movement peptide solution the was diluted 1 to 1 (v/v) in water. DOMTA/DOPE/PEPTIDE solutions were added to 0.1 mL of a plasmid DNA solution (EF1Alpha eGFP plasmid) at 10 μg/mL in OptiMEM.
(§2) All solutions were at room temperature. A volume of 0.2 mL of a 10 μg/mL solution of DNA was aliquoted into each well of a non-tissue cultured treated plate. 1-6 μL of transfection reagents were added to DNA solutions respectively. The transfection reagent and DNA solution was mixed by pipetting up and down twice. Transfection complexes were formed for 10 minutes. After 10 minutes, 0.01 or 0.02 mL of the transfection complex was added to cells. HuVEC, HeLa, human adult keratinocytes, human primary adult fibroblast, and A549 cells all respectively received 0.01 mL of the transfection complex. Human skeletal muscle cells, mouse C2C12 cells, and Jurkat, cells received 0.02 mL of the transfection complex. Cells were incubated for 42 hours at 37° C. at 5% CO2. Plates were read on a fluorescent plate reader. Cells were also examined visually under a microscope to assess the extent of transfection (in terms of the percent of cells transfected) with a fluorescent microscope. Other modes of analysis, for example quantification with B-galactosidase or luciferase reports plasmids can also be used.

HuVec Cells = settings: 42 hours
Experimental: as §1, §2

[1] = tested on: Human Primary Fibroblast Cells; settings: 42 hours
Experimental: as §1, §2

[2] = value column 1 of 6, head not given, 1 µL transfection reagent
[3] = value column 3 of 6, head not given, 3 µL transfection reagent
[4] = value column 4 of 6, head not given, 4 µL transfection reagent

Substance	Relative Fluorescence of Transfection of Hela Cells (HeLa Cells; 2 µL transfection reagent)	Relative Fluorescence of Transfection of Hela Cells (HeLa Cells; 5 µL transfection reagent)	Relative Fluorescence of Transfection of Hela Cells (HeLa Cells; [2])	Relative Fluorescence of Transfection of Hela Cells (HeLa Cells; [3])	Relative Fluorescence of Transfection of Hela Cells (HeLa Cells; [4])	Relative Fluorescence of Transfection of HuVEC Cells (HuVec Cells; Transfection Agent 1 μl) [Rf]	Relative Fluorescence of Transfection of HuVEC Cells (HuVec Cells; Transfection Agent 1.5 μl) [Rf]	Relative Fluorescence of Transfection of HuVEC Cells (HuVec Cells; Transfection Agent 2 μl)	Relative Fluorescence of Transfection of HuVEC Cells (HuVec Cells; Transfection Agent 3 μl) [Rf]	Relative Fluorescence of Transfection of HuVEC Cells (HuVec Cells; Transfection Agent 4 μl) [Rf]	Relative Fluorescence of Transfection of HuVEC Cells (HuVec Cells; Transfection Agent 6 μl) [Rf]	Relative Fluorescence of Transfection of Human Primary Fibroblast Cells ([1]; Transfection Agent 1 μl) [Rf]	Relative Fluorescence of Transfection of Human Primary Fibroblast Cells ([1]; Transfection Agent 1.5 μl) [Rf]	Relative Fluorescence of Transfection of Human Primary Fibroblast Cells ([1]; Transfection Agent 2 μl) [Rf]	Relative Fluorescence of Transfection of Human Primary Fibroblast Cells ([1]; Transfection Agent 3 μl) [Rf]	Relative Fluorescence of Transfection of Human Primary Fibroblast Cells ([1]; Transfection Agent 4 μl) [Rf]	Relative Fluorescence of Transfection of Human Primary Fibroblast Cells ([1]; Transfection Agent 6 μl) [Rf]
540 (RRRRRRRRRRRRVDYGKWERKPIRCASMSR) [compound 540]	35653	13917	6422	27970	18620	24771	34062	44744 Rf	44087	45137	30023	29368	40610	35505	33853	33063	30219
542 (KKKKKKKKKKKKKKKKGKWERKPIRCAS) [compound 542]	32901	35631	9010	47293	42152	24827	33896	42546 Rf	43231	35294	29326	30818	43609	46966	36343	33706	31787
541 (RRRRRRRRRRRRGKWERKPIRCAS) [compound 541]	36476	20473	17145	37105	23644	27405	46446	OVER	40401	31568	28125	35030	44894	42097	31837	29537	28921
